Data reported in PubChem BioAssay AID1890 (The Scripps Research Institute Molecular Screening Center, 2009).
Calls of active or inactive are those of the source. How the calls were made is not given here.

Molecular target: Replicase polyprotein 1ab (Severe acute respiratory syndrome coronavirus) (UniProt P0C6X7)
Experiment: SARS 3CLpro cleavage inhibition IC50 – biochemical, quenched FRET, dose response (AID 1890)
Conditions: purified 3CLpro, quenched FRET peptide cleavage

Compound	IC50
Cc1nnc(SC(=O)N2c3ccccc3Sc3ccccc32)s1	inactive
CC(C)c1ccc(N(C(=O)c2ccco2)C(C(=O)NC2CCCC2)c2cccnc2)cc1 (stereo unspecified)	5.93 µM
O=C(Cn1nnc2ccccc21)c1ccc(Cl)cc1	9.91 µM
Cc1cc(NC(=O)COn2nnc3ccc(S(C)(=O)=O)cc32)ccc1Br	inactive
O=c1[nH]c(=O)n(-c2ccccc2F)c(O)c1/C=C1\C=Nc2ccccc21	9.47 µM
O=C(CCl)N(CCc1ccccc1)CCc1ccccc1	inactive
COc1ccc(C2CC(c3cccs3)=NN2C(=O)CCl)cc1OC (stereo unspecified)	2.3 µM
O=C(O)c1ccc2ncsc2c1	inactive
CCN(CC)C(=O)Cn1cc(/C=C2\C(=O)NC(=O)N(c3ccccc3F)C2=O)c2ccccc21	inactive
COc1cccc(C(C(=O)NCc2ccco2)N(Cc2ccco2)C(=O)Cn2nnc3ccccc32)c1 (stereo unspecified)	7.76 µM
COc1cccc(C(C(=O)NCC2CCCO2)N(C(=O)Cn2nnc3ccccc32)c2ccc(NC(C)=O)cc2)c1 (stereo unspecified)	inactive
Cn1cnc2cc(NC(=O)c3ccc(Cl)cc3)ccc21	inactive
COc1ccc2cc(C3(C)NC(=O)N(CC(=O)NCc4ccco4)C3=O)ccc2c1 (stereo unspecified)	inactive
CCC(C)(C)NC(=O)C(c1ccc(O)cc1)N(C(=O)Cn1nnc2ccccc21)c1ccc(NC(C)=O)cc1 (stereo unspecified)	inactive
O=C(/C=C/c1cccs1)Nc1scc(-c2ccccc2)c1C(=O)O	5.22 µM
O=C1C(=O)N(C/C=C/c2ccccc2)c2ccccc21	inactive
Cc1cc(C)c(N(C(=O)Cn2nnc3ccccc32)C(C(=O)NC(C)(C)C)c2ccsc2)c(C)c1 (stereo unspecified)	2.9 µM
O=C(O)c1[nH]c2ccccc2c1C(c1cc(Br)ccc1O)c1c(C(=O)O)[nH]c2ccccc12	> 59.6 µM (inactive)
COc1ccc2c(c1)C(=O)C(=O)N2CC1COc2ccccc2O1 (stereo unspecified)	9.74 µM
Cc1ccc(C(=O)Oc2ccc3c(c2)ncn3C)cc1	inactive
O=C(Oc1cccnc1)c1ccc(Cl)cc1	6.31 µM
Cc1cc(C)n(C(=O)c2ccc(C)c(Br)c2)n1	inactive
COc1cc2c(cc1OC)C(c1cc(Br)ccc1F)N(C(=O)CCl)CC2 (stereo unspecified)	9.88 µM
CCc1cccc(CC)c1N(COC)C(=O)Cn1nnc2ccccc21	inactive
O=C(c1cc(=O)[nH]c2ccccc12)N1CCN(c2ccccc2)CC1	9.95 µM
O=C(Nc1ccc(OCC(F)(F)C(F)F)c(C(F)(F)F)c1)c1ccccc1O	> 59.6 µM (inactive)

Compound	IC50
COc1ccc(C2C(O)C(c3c[nH]c4ccccc34)=NN2C(=O)CCl)cc1 (stereo unspecified)	3.58 µM
Cc1ccc(C(=O)n2cnc3ccccc32)cc1C	inactive
COC(=O)c1ccc(OC(=O)CN2C(=O)c3ccccc3C2=O)cc1	> 59.6 µM (inactive)
O=C(Cn1nnc2ccccc21)c1ccc(Br)cc1	4.01 µM
O=C(CSc1ccccn1)Nc1nonc1[N+](=O)[O-]	7.07 µM
CC(=O)NC1C(=O)N(CCN2CCOCC2)c2ccc(F)cc21 (stereo unspecified)	9.1 µM
CC1CCC2C(=O)N(c3cc(Cl)ccc3OC(=O)c3ccco3)C(=O)C2C1 (stereo unspecified)	5.39 µM
O=C(/C=C/c1c(F)cccc1Cl)Nc1cccnc1	inactive
Cc1cc(NC(=O)COC(=O)C(Nc2ccc(C(F)(F)F)cc2Cl)C(C)C)no1 (stereo unspecified)	> 59.6 µM (inactive)
CC(C)C[C@H](NC(=O)c1nc[nH]c1C(=O)NCc1ccc(CNC(=O)OC(C)(C)C)cc1)C(=O)OC(C)(C)C	> 59.6 µM (inactive)
O=C(/C=C/c1ccc(Cl)c([N+](=O)[O-])c1)NCc1cccnc1	inactive
CCOc1ccc2c(c1)C(=O)C(=O)N2CC1COc2ccccc2O1 (stereo unspecified)	4.29 µM
O=C(NCc1ccco1)C(c1ccco1)N(C(=O)Cn1nnc2ccccc21)c1ccc2c(c1)CCC2 (stereo unspecified)	inactive
COc1ccc(C(=O)n2c(SC)nc3cc4c(cc32)OCCO4)cc1	1.08 µM
Cc1ccc(/C=C/C(=O)c2cc(Br)ccc2OC(=O)c2ccco2)cc1	inactive
COc1cccc(/C=N/NC(=S)Nc2cccnc2)c1	inactive
Cn1nc(-c2ccc(Cl)cc2)nc2c(=O)n(C)c(=O)nc1-2	> 19.9 µM (inactive)
O=C(/C=C/c1ccccc1Cl)Nc1cccnc1	inactive
Cc1cccc(N2CCN(C(=O)c3cc(=O)[nH]c4ccccc34)CC2)c1C	6.66 µM
COc1ccccc1/C=C/C(=O)c1cc(Br)ccc1OC(=O)c1ccco1	8.94 µM
O=C(c1cc(=O)[nH]c2ccccc12)N1CCN(c2cccc(C(F)(F)F)c2)CC1	5.1 µM
O=C1NC(=O)N(c2ccccc2F)C(=O)/C1=C/c1cn(CC(=O)N2CCOCC2)c2ccccc12	inactive
Cc1cc(=O)oc2cc(OC(=O)c3ccco3)ccc12	3.34 µM
N#CCC(=O)N/N=C/c1c(-c2ccccc2)n(-c2ccccc2)c2ccccc12	> 59.6 µM (inactive)
CCc1ccc2c(c1)C(NC(C)=O)C(=O)N2CCN1CCOCC1 (stereo unspecified)	6.56 µM
Cc1ccc(-c2cc(NC(=O)c3ccccc3[N+](=O)[O-])n[nH]2)cc1	inactive

Compound	IC50
Cc1ccc(C(=O)O)cc1NC(=S)NC(=O)c1ccc(COc2ccccc2)cc1	> 59.6 µM (inactive)
O=C(N/N=C\c1c(O)ccc2ccccc12)c1cncc(Br)c1	inactive
NC(=O)CCn1c(C(=O)c2cccc([N+](=O)[O-])c2)c2ccccc2[n+]1[O-]	inactive
CC(=O)n1cc(N(C(=O)CCl)c2ccc([N+](=O)[O-])cc2)c2ccccc21	inactive
COc1ccccc1OCCNC(=O)c1cc(=O)[nH]c2ccccc12	3.6 µM
Cc1ccc(C2=NN(C(=O)CCl)C(c3ccco3)C2)o1 (stereo unspecified)	5.2 µM
O=C1C(=O)N(CC2COc3ccccc3O2)c2ccccc21 (stereo unspecified)	inactive
Cc1ccc(C2CC(c3cccs3)=NN2C(=O)CCl)cc1 (stereo unspecified)	4.19 µM
COc1cc(/C=N\NC(=O)Cn2nnc3ccccc32)cc(OC)c1OC	5.18 µM
COc1ccc(C(C(=O)NCC2CCCO2)N(C(=O)Cn2nnc3ccccc32)c2ccc(NC(C)=O)cc2)cc1 (stereo unspecified)	9.35 µM
COc1cc(C2CC(c3cccs3)=NN2C(=O)CCl)ccc1OC(F)F (stereo unspecified)	2.8 µM
O=C(Oc1ccc(Cl)cc1N1C(=O)CCC1=O)c1ccco1	inactive
Cc1cc(C(=O)CCl)c(C)n1-c1cccc([N+](=O)[O-])c1	4.59 µM
Cc1cc(=O)oc2cc(NC(=O)Cc3ccccc3[N+](=O)[O-])ccc12	> 59.6 µM (inactive)
CCCCOc1ccc(C(=O)Oc2cccnc2)cc1	> 59.6 µM (inactive)
Cc1ccc2[nH]c3c(c2c1)CN(C(=O)CN1c2ccc(F)cc2CCC1C)CC3 (stereo unspecified)	inactive
COc1ccc(N(C(=O)Cn2nnc3ccccc32)C2(C(=O)NC3CCCC3)CCCCC2)cc1	7.89 µM
Cc1cccc2c1N(CCOc1ccccc1)C(=O)C2=O	inactive
CC(=O)c1c(OC(=O)c2ccco2)c2ccccc2n1C	inactive
COc1ccc(C(=O)Oc2cccnc2)cc1	> 59.6 µM (inactive)
O=C1C(=O)N(CCCc2ccccc2)c2ccccc21	inactive
CC(C)C12CN(C(=O)c3ccccc3[N+](=O)[O-])CC(C(C)C)(CN(C(=O)c3ccccc3[N+](=O)[O-])C1)C2=O	inactive
O=C(Cc1ccc(Cl)c(Cl)c1)Nc1cccnc1	inactive
O=C(Nc1ccccc1)NN(C(=O)CCl)c1ccccc1	9.64 µM
CCC(C)(C)NC(=O)C(c1cccn1C)N(C(=O)Cn1nnc2ccccc21)c1ccc(NC(C)=O)cc1 (stereo unspecified)	6.29 µM
CC1(C)C2CC=C(/C=N/NC(=S)Nc3cccnc3)C1C2 (stereo unspecified)	> 59.6 µM (inactive)

Compound	IC50
O=Cc1cn(Cc2ccccc2)nc1-c1cccnc1	7.21 µM
Cc1ccc(C(=O)c2c3ccc(C(F)(F)F)cc3[n+]([O-])n2CCC(N)=O)cc1	inactive
C[C@@]12C(=O)N(c3cccc(Br)c3)C(=O)N1[C@H](c1ccc(Cl)cc1)[C@@H]1C(=O)N(C3CCCCC3)C(=O)[C@@H]12	> 59.6 µM (inactive)
CCc1nc(N2CCN(C(=O)CCl)CC2)c2c3c(sc2n1)CC(C)CC3 (stereo unspecified)	4.23 µM
CN(C)S(=O)(=O)c1cccc(NC(=O)CSc2cccc3cccnc23)c1	inactive
CC(=O)c1cc(-c2ccccc2)[nH]c1N1CCCC1	4.63 µM
CC(=O)Nc1ccc(N(C(=O)Cn2nnc3ccccc32)C(C(=O)NC2CCCC2)c2ccc(O)c(O)c2)cc1 (stereo unspecified)	inactive
CCC(C)c1ccc(N(C(=O)c2ccco2)C(C(=O)NC2CCCC2)c2cccnc2)cc1 (stereo unspecified)	2.23 µM
Nc1ncc(Br)cc1S(=O)(=O)Nc1cc(C(F)(F)F)cc(C(F)(F)F)c1	> 59.6 µM (inactive)
NC(=O)CCn1c(C(=O)c2cc(Cl)c(N)c(Cl)c2)c2ccccc2[n+]1[O-]	9.81 µM
COc1cccc(C(C(=O)Nc2ccc(F)cc2)N(C(=O)Cn2nnc3ccccc32)C2CC2)c1 (stereo unspecified)	inactive
Cc1cc(C)c(C)c(S(=O)(=O)N2CCN(C(=O)c3cc(=O)[nH]c4ccccc34)CC2)c1C	4.83 µM
CC(=O)NC1C(=O)N(CCN2CCOCC2)c2ccc(Br)cc21 (stereo unspecified)	7.58 µM
O=C(Oc1ccc(Br)cc1C(=O)/C=C/c1ccccc1F)c1ccco1	7.12 µM
Cc1sc(NC(=O)CCl)c(C(=O)c2ccccc2)c1C	inactive
O=C(OCC(=O)N1c2ccccc2Sc2ccccc21)c1cccnc1	inactive
Cc1ccc(C(=O)c2c3ccccc3[n+]([O-])n2CCC(N)=O)cc1	9.36 µM
O=C(O)COc1ccc(Br)cc1C(c1c(C(=O)O)[nH]c2ccccc12)c1c(C(=O)O)[nH]c2ccccc12	> 59.6 µM (inactive)
COc1ccc(N(Cc2cc(=O)[nH]c3ccccc23)C(=O)CCl)cc1	inactive
CCc1cc(=O)oc2cc(OC(=O)c3ccco3)ccc12	2.96 µM
NC(=O)CCn1c(C(=O)c2ccc(Cl)cc2)c2ccccc2[n+]1[O-]	4.88 µM
CC(C)c1ccc(N(C(=O)c2csnn2)C(C(=O)NC2CCCC2)c2cccnc2)cc1 (stereo unspecified)	inactive
CCn1nc(-c2ccccc2)nc2c(=O)n(C)c(=O)nc1-2	> 59.6 µM (inactive)
